Assay results from ChEMBL document CHEMBL3045705, “Thermal, kinetic, spectroscopic studies and anti-microbial, anti-tuberculosis, anti-oxidant properties of clioquinol and benzo-coumarin derivatives mixed complexes with copper ion” (2013).
In brackets after ≈: the same amount, converted by molar mass.

Legend:
Format in all cases: functional
Escherichia coli = test: Antibacterial activity against Escherichia coli ATCC 25922 after 16 to 18 hr by Kirby-Bauer disc diffusion method
Pseudomonas aeruginosa = test: Antibacterial activity against Pseudomonas aeruginosa ATCC 25619 after 16 to 18 hr by Kirby-Bauer disc diffusion method
Streptococcus pyogenes = test: Antibacterial activity against Streptococcus pyogenes ATCC 12384 after 16 to 18 hr by Kirby-Bauer disc diffusion method
Bacillus subtilis = test: Antibacterial activity against Bacillus subtilis ATCC 11774 after 16 to 18 hr by Kirby-Bauer disk diffusion method
[1] = system: Mycobacterium tuberculosis; test: Growth inhibition of Mycobacterium tuberculosis H37Rv MTCC 200 at MIC after 28 days by micro dilution anti-microbial susceptibility test
[2] = system: Mycobacterium tuberculosis; test: Antitubercular activity against Mycobacterium tuberculosis H37Rv MTCC 200 after 28 days by micro dilution anti-microbial susceptibility test; settings: H37Rv MTCC 200, 672 h
Aspergillus niger = test: Antifungal activity against Aspergillus niger ATCC 64958 after 16 to 18 hr by Kirby-Bauer disc diffusion method
Candida albicans = test: Antifungal activity against Candida albicans ATCC 66027 after 16 to 18 hr by Kirby-Bauer disk diffusion method

Molecule | MIC (Escherichia coli) [µg/mL] | MIC (Pseudomonas aeruginosa) [µg/mL] | MIC (Streptococcus pyogenes) [µg/mL] | MIC (Bacillus subtilis) [µg/mL] | growth inhibition (GI) [1] [%] | MIC [2] [µg/mL] | MIC (Aspergillus niger) [µg/mL] | MIC (Candida albicans) [µg/mL]
CCn1cc(C(=O)O)c(=O)c2cc(F)c(N3CCNCC3)cc21 [NORFLOXACIN] | 10 (≈ 31.3 µM) | 10 (≈ 31.3 µM) | 10 (≈ 31.3 µM) | 10 (≈ 31.3 µM) | – | – | – | –
NNC(=O)c1ccncc1 [ISONIAZID] | – | – | – | – | 99 | 0.25 (≈ 1.82 µM) | – | –
O=C(/C=C/c1ccc(O)cc1)c1cc2c(ccc3ccccc32)oc1=O | 200 (≈ 584 µM) | 200 (≈ 584 µM) | 400 (≈ 1170 µM) | 400 (≈ 1170 µM) | 46 | 50 (≈ 146 µM) | 400 (≈ 1170 µM) | 200 (≈ 584 µM)
O=C(/C=C/c1ccc(Cl)cc1)c1cc2c(ccc3ccccc32)oc1=O | 100 (≈ 277 µM) | 100 (≈ 277 µM) | 100 (≈ 277 µM) | 200 (≈ 554 µM) | 88 | 12.5 (≈ 34.6 µM) | 200 (≈ 554 µM) | 200 (≈ 554 µM)
OC(Cn1cncn1)(Cn1cncn1)c1ccc(F)cc1F [FLUCONAZOLE] | – | – | – | – | – | – | 10 (≈ 32.7 µM) | 10 (≈ 32.7 µM)
O=C(/C=C/c1ccc([N+](=O)[O-])cc1)c1cc2c(ccc3ccccc32)oc1=O | 100 (≈ 269 µM) | 200 (≈ 539 µM) | 100 (≈ 269 µM) | 200 (≈ 539 µM) | 54 | 50 (≈ 135 µM) | 200 (≈ 539 µM) | 200 (≈ 539 µM)
O=C(O)c1cn(C2CC2)c2cc(N3CCNCC3)c(F)cc2c1=O [CIPROFLOXACIN] | 20 (≈ 60.4 µM) | 10 (≈ 30.2 µM) | 20 (≈ 60.4 µM) | 5 (≈ 15.1 µM) | – | – | – | –
NYSTATIN | – | – | – | – | – | – | 100 | 100
O=C(/C=C/c1ccccc1[N+](=O)[O-])c1cc2c(ccc3ccccc32)oc1=O | 200 (≈ 539 µM) | 400 (≈ 1080 µM) | 200 (≈ 539 µM) | 400 (≈ 1080 µM) | 37 | 50 (≈ 135 µM) | 200 (≈ 539 µM) | 400 (≈ 1080 µM)
CC[C@@H](CO)NCCN[C@@H](CC)CO [ETHAMBUTOL] | – | – | – | – | 99 | 3.12 (≈ 15.3 µM) | – | –
CC1(C)S[C@@H]2[C@H](NC(=O)[C@H](N)c3ccccc3)C(=O)N2[C@H]1C(=O)O [AMPICILLIN] | 100 (≈ 286 µM) | 100 (≈ 286 µM) | 100 (≈ 286 µM) | 100 (≈ 286 µM) | – | – | – | –
O=C(/C=C/c1ccccc1)c1cc2c(ccc3ccccc32)oc1=O | 400 (≈ 1230 µM) | 400 (≈ 1230 µM) | 400 (≈ 1230 µM) | > 600 | 18 | 100 (≈ 306 µM) | 200 (≈ 613 µM) | 400 (≈ 1230 µM)
CN[C@@H]1[C@H](O[C@H]2[C@H](O[C@H]3[C@H](O)[C@@H](O)[C@H](N=C(N)N)[C@@H](O)[C@@H]3N=C(N)N)O[C@@H](C)[C@]2(O)C=O)O[C@@H](CO)[C@H](O)[C@H]1O [STREPTOMYCIN] | – | – | – | – | 98 | 6.25 (≈ 10.7 µM) | – | –
O=C(/C=C/c1cccc(O)c1)c1cc2c(ccc3ccccc32)oc1=O | 400 (≈ 1170 µM) | 200 (≈ 584 µM) | 200 (≈ 584 µM) | 600 (≈ 1750 µM) | 23 | 100 (≈ 292 µM) | 200 (≈ 584 µM) | 200 (≈ 584 µM)
